Target: T1, CRTh2 receptor (Homo sapiens, UniProt Q9Y5Y4)
T1 construct: expressed in transfected cells
T1 sequence (Q9Y5Y4 1-395): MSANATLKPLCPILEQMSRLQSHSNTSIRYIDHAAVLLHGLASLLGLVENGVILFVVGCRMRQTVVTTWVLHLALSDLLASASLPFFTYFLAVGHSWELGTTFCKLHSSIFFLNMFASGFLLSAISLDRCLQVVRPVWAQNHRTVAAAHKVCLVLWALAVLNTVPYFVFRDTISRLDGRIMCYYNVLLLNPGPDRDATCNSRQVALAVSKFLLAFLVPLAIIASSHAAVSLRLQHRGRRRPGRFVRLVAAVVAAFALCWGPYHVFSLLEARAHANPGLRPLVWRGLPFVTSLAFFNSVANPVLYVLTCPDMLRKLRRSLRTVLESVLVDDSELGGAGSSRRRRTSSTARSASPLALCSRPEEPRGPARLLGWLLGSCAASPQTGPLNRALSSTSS
Assay: Intracellular calcium mobilisation (FLIPr, fluo-3AM), inhibition of the response to PGD2 in HEK-hrCRTh2-Gα16 cells
Format: cell-based
Conditions: antagonist affinity vs PGD2, pIC50 Cheng-Prusoff analysis, read-out: pA2 (converted)
Description: Pharmacological Data—Intracellular Calcium Mobilisation
Human Embryonic Kidney Cells co-transfected with both the CRTh2 receptor and […] G-protein (HEK-hrCRTh2-G[…]16) are routinely cultured as monolayers in Dulbecco's Modified Eagles Medium (DMEM; Sigma) supplemented with 10% (v:v) heat inactivated foetal bovine serum (New Zealand sourced; Hyclone), 1% (v:v) non-essential amino acids (Gibco BRL), 1% (v:v) penicillin/streptomycin (Gibco BRL), 2 mM L-glutamine (Gibco BRL) and grown under 1 mg/ml […] Geneticin (Gibco BRL) antibiotic selection. Approximately 24 hours prior to the assay the cells are plated at a seeding density of 100,000 cells/well in 100 µl growth media into black walled 96 well Poly-D-Lysine coated plates (Becton Dickinson), with clear bottoms to allow cell inspection and fluorescence measurements from the bottom of each well. All cultures are maintained under standard tissue culture conditions (37° C. in a humidified atmosphere of 5% CO2).
To enable changes in intracellular calcium levels to be measured in HEK-hrCRTh2-Gα16 cells fluo-3AM is utilised as the fluorescent calcium indicator. A dye loading buffer is prepared which consists of a final concentration of 5 µM Fluo-3AM fluorescent cytoplasmic calcium indicator dye (Tef Labs), 2.2 µl/ml Pluronic F127 (Molecular Probes) to promote dye uptake, and 0.5 mM brilliant black (Sigma) to reduce background fluorescence in Balanced Salt Solution (BSS; 125 mM NaCl, 5.4 mM KCl, 16.2 mM NaHCO3, 0.8 mM MgCl2, 1 mM CaCl2, 20 mM HEPES, 1 mM NaH2PO4, 5.5 mM D-(+)-Glucose, 0.1% BSA and pH 7.4 with NaOH). […]
Test compounds are made up at a stock concentration of 10 mM in DMSO. The compounds to be evaluated are then prepared, by serial dilution in BSS buffer, to the required concentrations for inhibition dose response curves to be constructed. […] This allows the potency agonist (p[A]50) value to be determined for the HEK-hrCRTh2-Gα16 cells on any given day. Once the p[A]50 for PGD2 has been determined a separate assay plate containing 2×p[A]50 of PGD2 is prepared as the 2nd addition plate (or agonist plate). […]

Kb	Structure (SMILES)
158 nM	Cc1c(CC(=O)O)c2cc(C(C)C)ccc2n1-c1ncnc2cc(Cl)ccc12 [1-(7-chloro-4-quinazolinyl)-2-methyl-5-(1-methylethyl)-1H-indole-3-acetic acid]
1000 nM	COc1ccc2c(c1)c(CC(=O)O)c(C)n2-c1ncnc2c(Cl)cc(Cl)cc12 [1-(6,8-dichloro-4-quinazolinyl)-5-methoxy-2-methyl-1H-indole-3-acetic acid]
1580 nM	Cc1c(CC(=O)O)c2ccccc2n1-c1ncnc2cc(Cl)ccc12 [1-(7-chloro-4-quinazolinyl)-2-methyl-1H-indole-3-acetic acid]
